The text below walks through data of BindingDB's records for doi:10.1021/jm00156a023 (1986).

The target of assay [1] is sucrase-isomaltase (Sus scrofa). The assay is described as follows: Alpha-D-glucosidase inhibitory activity and enzyme inhibition in vitro against porcine sucrase.
The target of assay [2] is maltase-glucoamylase (Sus scrofa). The assay is described as follows: Inhibitory activity against porcine maltase.

What is called IC50 is the concentration that inhibits the measured activity by half. Low readings indicate greater potency, high ones weaker potency. As for `OC[C@@]1(O)C[C@H](NCc2ccc(Br)cc2)[C@H](O)[C@@H](O)[C@@H]1O` [5-(4-Bromo-benzylamino)-1-hydroxymethyl-cyclohexane-1,2,3,4-tetraol], the IC50 was determined as 15 nM in assay [1] and 230 nM in assay [2]. In the same order, the values of `OC[C@@]1(O)C[C@H](NCC2CCCCC2)[C@H](O)[C@@H](O)[C@@H]1O` [5-(Cyclohexylmethyl-amino)-1-hydroxymethyl-cyclohexane-1,2,3,4-tetraol] are 9.3 nM and 240 nM. The corresponding values for `CO[C@H]1O[C@H](CO)[C@H](N[C@H]2C[C@](O)(CO)[C@@H](O)[C@H](O)[C@H]2O)[C@H](O)[C@H]1O` are 230 nM and 100 nM. Consider `CC(C)(C)c1cc(CN[C@H]2C[C@](O)(CO)[C@@H](O)[C@H](O)[C@H]2O)cc(C(C)(C)C)c1O` [5-(3,5-Di-tert-butyl-4-hydroxy-benzylamino)-1-hydroxymethyl-cyclohexane-1,2,3,4-tetraol], for which the IC50 in assay [1] was 6.8 nM; in assay [2] it was 43 nM. In the same order, the values of `OC[C@@]1(O)C[C@H](NC2CCCCC2)[C@H](O)[C@@H](O)[C@@H]1O` [5-Cyclohexylamino-1-hydroxymethyl-cyclohexane-1,2,3,4-tetraol] are 15 nM and 410 nM.

Regarding `OC[C@@]1(O)C[C@H](NC[C@H](O)c2ccccc2)[C@H](O)[C@H](O)[C@H]1O` [1-Hydroxymethyl-5-(2-hydroxy-2-phenyl-ethylamino)-cyclohexane-1,2,3,4-tetraol], in assay [2], the 50% inhibitory concentration (IC50) is 5.8 nM. As for `OCC1=C[C@H](NC(CO)CO)[C@H](O)[C@@H](O)[C@@H]1O` [6-(2-Hydroxy-1-hydroxymethyl-ethylamino)-4-hydroxymethyl-cyclohex-4-ene-1,2,3-triol], the results for the IC50 in assay [1] and in assay [2] were 180 nM and 5900 nM, respectively. In the same order, the values of `N[C@H]1C[C@](O)(CO)[C@@H](O)[C@H](O)[C@H]1O` [Valiolamine] are 49 nM and 2200 nM.

As to `OC[C@@]1(O)C[C@H](NCCc2ccccc2)[C@H](O)[C@@H](O)[C@@H]1O` [1-Hydroxymethyl-5-phenethylamino-cyclohexane-1,2,3,4-tetraol], the IC50 was determined as 2.3 nM in assay [1] and 100 nM in assay [2]. Turning to `CC(C)=CCC/C(C)=C/CN[C@H]1C[C@](O)(CO)[C@@H](O)[C@H](O)[C@H]1O` [5-(3,7-Dimethyl-octa-2,6-dienylamino)-1-hydroxymethyl-cyclohexane-1,2,3,4-tetraol], the IC50 in assay [1] was found to be 11 nM; in assay [2] it was 520 nM. For the compound `OC[C@@]1(O)C[C@H](NC[C@@H](O)c2ccccc2)[C@H](O)[C@H](O)[C@H]1O` [1-Hydroxymethyl-5-(2-hydroxy-2-phenyl-ethylamino)-cyclohexane-1,2,3,4-tetraol], in assay [1], the IC50 worked out at 190 nM. This lies in the sub-micromolar range. Regarding `CO[C@H]1O[C@H](CO)[C@@H](N[C@H]2C[C@](O)(CO)[C@@H](O)[C@H](O)[C@H]2O)[C@H](O)[C@H]1O`, the IC50 came out at 80 nM in assay [1] and 72 nM in assay [2].
